Data set [1] has as its target hERG channels (Homo sapiens, UniProt Q12809). Put plainly: hERG whole-cell patch clamp in HEK 293 cells stably expressing hERG. As to conditions: HEK 293 stably expressing hERG, tail current. Format: cell-based. As for the experimental part:
The HEK 293 cell line (K1236) stably expressing hERG was purchased from Invitrogen. Cells were cultured in 85% DMEM, 10% dialyzed FBS, 0.1 mM NEAA, 25 mM HEPES, 100 U/mL penicillin-streptomycin, 5 μg/mL blasticidin and 400 μg/mL geneticin. Cells were split using TrypLE™ about three times a week, and maintained at a confluence of about 40% to about 80%. Before measurement, cells were cultured at a density of 5×10^5 in a 6 cm culture dish and induced with 1 μg/mL doxycycline for 48 hours.
Extracellular solution (mM): 132 NaCl, 4 KCl, […], 0.5 MgCl2, 11.1 glucose, 10 HEPES (pH 7.35 adjusted with NaOH);
Intercellular solution (mM): 140 KCl, 2 MgCl2, 10 EGTA, 10 HEPES, 5 MgATP (pH 7.35 adjusted with KOH).
The test compounds were formulated in DMSO to prepare a stock solution with a final concentration of 10 mM.
Then, the stock solution of each compound was diluted with DMSO in a 1:3 serial dilution to prepare five intermediate solutions with concentrations of 3, 1, 0.33, 0.12, 0.04 mM or 3.33, 1.11, 0.37, 0.12 mM, respectively.
Before testing, the final working solutions were prepared by diluting the intermediate solutions 1000 times with the extracellular solution. The concentration of DMSO in the working solutions was within a range around 0.1%.
The working solutions at five different concentrations of 3, 1, 0.33, 0.12 and 0.04 μM were used to determine the potential inhibition effect of the compounds on hERG channels and to fit concentration-response curves and calculate IC50.
The coverslip was removed from the cell culture dish and placed on a microscope stage.
A 10× objective was used to locate cells to be observed. An electrode tip was located under the microscope using the 10× objective by focusing above the plane of the cells. Once the tip was in focus, the electrode was advanced downward towards the cells under rough control of the manipulator, while the objective was moved so as to keep the tip in focus.
When the electrode was directly over a cell, the objective was switched to a 40× objective and fine control of the manipulator was used to enable to gradually approach the cell surface.
With gentle suction through a side port of an electrode holder, a giga-ohm seal was formed.
Cfast was used to eliminate the capacitive current consistent with the voltage step. Brief and strong suction was applied repeatedly until the membrane patch ruptured and the whole-cell configuration was obtained.
At this point, membrane potential was set to −60 mV in order to ensure that hERG channels were not open. Then, Cslow on the amplifier was used to remove the spikes of capacitive current.
Holding potential was set to −90 mV for 500 ms. Current was recorded at 20 kHz and filtering was carried out at 10 kHz. Leak current was tested at −80 mV for 500 ms.
The hERG current was elicited by depolarizing at +30 mV for 4.8 seconds, and then the voltage was restored to −50 mV for 5.2 seconds to remove the inactivation and observe the deactivating tail current. The maximum of tail current size was used to determine hERG current amplitude.
Current was recorded for 120 seconds to evaluate the current stability. Only stable cells with recording parameters above thresholds were used for drug administrations.
Firstly, vehicle control was applied to the cells to establish the baseline. […] The hERG current in the presence of the test compound was recorded for about 5 minutes to reach a steady state, and then 5 sweeps were captured. For dose-response testing, multiple compounds were applied to the cells cumulatively from low to high concentrations (multiple compounds were detected simultaneously). The positive control, Dofetilide at a concentration of 150 nM, was also applied to each cell post hERG current measurement at the highest concentration of the test compound, which was used as an internal low control for normalization of percentage inhibition. […]
A general note: The hERG channel carries a current that helps repolarise heart muscle cells.

Data set [2] is described as follows: MRC5 proliferation test (CellTiter-Glo). The format is cell-based. As to conditions: human, MRC5 cells (normal cells), 3 days incubation, read-out: MRC5 (IC50, nM), inhibitory effect on proliferation of normal cells. The text has this: • MRC5 (ATCC; Cat. No.: CCL-171)
• Culture medium EMEM (ATCC, 30-2003) • Fetal bovine serum (Gibco, 10091148) • Penicillin-streptomycin double antibody (Gibco, S110JV) • DPBS (Gibco, 14190-144) • CellTiter-Glo® assay kit (Promega, G7573) • Trypsin (0.25%) (Gibco, 25200-056) • DMSO (Sigma, D2650)
• Biosafety cabinet (AIRTECH, BSC-1300A II) • Automated cell counter (Life Technologies, countess II) • Multifunctional microplate reader (Biotek, H1FM) • Shaker (Hangzhou Allsheng Instruments Co., Ltd., OS-100) • XLFIT 5.3 (Shanghai Inforstack Co., Ltd.)
For this test method, the following experiment was performed in a biosafety cabinet with the specific steps as follows. • (1) Cells were seeded in a […] (in which the culture medium was EMEM). One day later, the previous culture medium EMEM was poured off, and 5 mL of DPBS was added to wash the cells. Then DPBS was pipetted and discarded. An appropriate amount of trypsin was then added. The plate was placed in a 5% CO2 cell incubator at 37° C. to digestion for about 2 to 5 minutes, and then taken out. New culture medium EMEM was added. The cells were pipetted up and down to resuspend evenly. The cells were then counted by an automated cell counter. • (2) Cells were seeded in columns 1 to 11 of a 96-well plate (Corning, Cat. No. 3610) at a density of 3000 cells per well in 100 μL of culture medium EMEM, and 100 μL of culture medium EMEM free of cells was added into column 12 of the wells. Then, the plate was placed in the 5% CO2 incubator at 37° C. for 24 hours. • (3) Next, the compound of the present invention was 2-fold serially diluted into 8 dose points starting at 10 μM. 10 μL of the serially diluted compound was pipetted and added to 100 μL of cells in columns 1 to 10, and 10 μL of the culture medium EMEM containing 2% DMSO was added to both columns 11 and 12. The plate was placed in the 5% CO2 incubator at 37° C. and incubated for 3 days (Note: column 11 was used as a MAX well with cells but without the compound; column 12 was used as a MIN well without both cell and compound). • (4) The cell viability detection reagent in the above CellTiter-Glo® assay kit was then added to the 96-well plate at 50 μL per well according to the instruction, and shaken on a shaker in dark for 5 to 10 minutes. The cell viability was then measured using a multifunctional microplate reader. Finally, the inhibition of the compound of the present invention on cell proliferation was plotted by XLFIT software, and the half inhibitory concentration, IC50 value of the compound of the present invention was calculated therefrom.
(Cellular ATP, detected with luciferase, serves as a proxy for viable cell number.)

Data set [3] is described as follows: UV-VIS absorption spectra (optical property test). Format: physicochemical. As to conditions: 10 μM, DMSO solution; for Absorbance × 10^4: at maximum absorption peak. How it is done: The UV-VIS absorption spectra of the compounds (10 μM, DMSO solution) were detected using Shimadzu UV2600 spectrophotometer, and the maximum absorption peak and absorbance of each compound were obtained.

The nature of data set [4]: Kinetic solubility in phosphate buffered saline (HPLC). The format is physicochemical. As to conditions: phosphate buffered saline (PBS), aqueous buffer, kinetic from dmso stock, 25° C., shaken 2 hours, from 10 mM DMSO stock. As for the experimental part: The compounds were weighed in an appropriate amount and dissolved in DMSO to prepare a 10 mM stock solution. 30 μL of the stock solution was taken and 970 μL of phosphate buffered saline solution (PBS) was added thereto. The solution was shaken at 25° C. on a thermostatic mixer for 2 hours, and centrifuged at 12000 rpm for 10 minutes. The supernatant was taken, and the kinetic solubility of each compound in phosphate buffered saline solution (PBS) was determined by Waters Acquity Arc HPLC.

Data set [5] concerns RT112 tumor. The data set can be described thus: Tumor/background ratio in subcutaneous RT112 tumor model mice. Format: in vivo. As to conditions: 2 mpk intraperitoneal, 48 hours after injection. An excerpt: The subcutaneous tumor model mice inoculated with RT112 tumor were selected. Each compound was administrated at a dose of 2 mpk, and intraperitoneally injected.

hERG channels, sequence (Q12809 whole entry): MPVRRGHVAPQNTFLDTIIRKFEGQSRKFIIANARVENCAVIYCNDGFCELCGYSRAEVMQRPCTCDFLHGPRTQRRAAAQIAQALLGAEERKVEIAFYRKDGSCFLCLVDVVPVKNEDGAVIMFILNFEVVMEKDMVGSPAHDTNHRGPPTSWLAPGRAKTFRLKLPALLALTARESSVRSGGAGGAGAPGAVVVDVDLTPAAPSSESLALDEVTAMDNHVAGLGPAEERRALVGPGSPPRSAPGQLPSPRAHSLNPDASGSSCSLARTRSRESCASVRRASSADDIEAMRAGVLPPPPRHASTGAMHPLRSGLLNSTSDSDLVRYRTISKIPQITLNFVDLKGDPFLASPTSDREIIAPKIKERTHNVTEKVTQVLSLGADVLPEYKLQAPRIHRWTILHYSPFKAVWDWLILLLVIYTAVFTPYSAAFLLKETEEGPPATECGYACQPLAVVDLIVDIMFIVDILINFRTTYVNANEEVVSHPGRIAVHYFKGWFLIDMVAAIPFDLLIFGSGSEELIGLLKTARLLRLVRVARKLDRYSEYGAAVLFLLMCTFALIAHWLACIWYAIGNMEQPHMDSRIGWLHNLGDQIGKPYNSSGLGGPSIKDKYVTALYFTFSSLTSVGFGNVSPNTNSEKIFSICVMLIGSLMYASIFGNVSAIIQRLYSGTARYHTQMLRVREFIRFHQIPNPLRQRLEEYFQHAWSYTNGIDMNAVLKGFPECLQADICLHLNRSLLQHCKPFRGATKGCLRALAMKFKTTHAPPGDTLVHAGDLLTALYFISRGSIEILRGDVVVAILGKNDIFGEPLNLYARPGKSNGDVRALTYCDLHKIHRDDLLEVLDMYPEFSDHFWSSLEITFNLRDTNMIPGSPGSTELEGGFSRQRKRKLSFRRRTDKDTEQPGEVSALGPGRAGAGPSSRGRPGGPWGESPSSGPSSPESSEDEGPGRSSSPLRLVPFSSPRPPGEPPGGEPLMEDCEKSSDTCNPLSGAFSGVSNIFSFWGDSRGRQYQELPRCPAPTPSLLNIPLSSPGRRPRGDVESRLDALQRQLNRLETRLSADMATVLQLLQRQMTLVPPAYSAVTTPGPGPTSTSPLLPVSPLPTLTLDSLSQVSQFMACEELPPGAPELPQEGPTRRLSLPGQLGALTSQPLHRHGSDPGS

Consider `CC[N+]1=C(/C=C/C2=C(Cl)C(=C/C=C3/N(CCCCCC(=O)Oc4ccccc4)c4ccccc4C3(C)C)/CCC2)C(C)(C)c2ccccc21.[Cl-]` [Comparative Example 1, 2-((E)-2-((E)-2-chloro-3-(2-((E)-3,3-dimethyl-1-(6-oxo-6-phenoxyhexyl)indolin-2-ylidene)ethenyl)cyclohex-1-en-1-yl)ethenyl)-1-ethyl-3,3-dimethyl-3H-indol-1-ium Chloride, reference compound], for which the IC50 in data set [1] is under 120 nM. The IC50 at 3 days in data set [2] was 2700 nM. Moreover, in data set [3], the Absorption peak came to 794.5 nm and the “Absorbance × 10^4” value was found to be 2.16. The kinetic solubility (in general, the concentration staying in solution when a stock, usually in DMSO, is diluted into the medium) at 2 h in data set [4] was 5 µg/mL. Besides, in data set [5], the Tumor/background ratio was 2.4.
In data set [1], `COCCOCCN1/C(=C/C=C2\CCCC(/C=C/C3=[N+](CCOCCOCCC(=O)O)c4ccccc4C3(C)C)=C2Cl)C(C)(C)c2ccccc21` [Example 68, 1-(2-(2-(2-carboxyethoxy)ethoxy)ethyl)-2-((E)-2-((E)-2-chloro-3-(2-((E)-1-(2-(2-methoxyethoxy)ethyl)-3,3-dimethylindolin-2-ylidene)ethenyl)cyclohex-1-en-1-yl)ethenyl)-3,3-dimethyl-3H-indol-1-ium 2,2,2-trifluoroacetate] showed an IC50 of 890 nM. Besides, the IC50 at 3 days in data set [2] was over 10000 nM. In data set [3], the Absorption peak amounted to 796 nm and the “Absorbance × 10^4” value was determined as 2.74. This molecule also gave a solubility (kinetic) at 2 h in data set [4] of over 250 µg/mL. Also, the Tumor/background ratio in data set [5] came to 2.5.
The molecule `COCCOCCOCCN1/C(=C/C=C2\CCCC(/C=C/C3=[N+](CCOCCOCCC(=O)O)c4ccccc4C3(C)C)=C2Cl)C(C)(C)c2ccccc21` [Example 70] returned an IC50 in data set [1] of 568 nM. Moreover, the IC50 at 3 days in data set [2] is over 10000 nM. Moreover, in data set [3], the Absorption peak stood at 796.5 nm and the “Absorbance × 10^4” value came out at 2.09. This molecule gave a kinetic solubility at 2 h in data set [4] of over 250 µg/mL. Also, the Tumor/background ratio in data set [5] came out at 2.7.
The molecule `COCCOCCOCCOCCN1/C(=C/C=C2\CCCC(/C=C/C3=[N+](CCOCCOCCC(=O)O)c4ccccc4C3(C)C)=C2Cl)C(C)(C)c2ccccc21` [Example 73, 1-(2-(2-(2-carboxyethoxy)ethoxy)ethyl)-2-((E)-2-((E)-2-chloro-3-(2-((E)-3,3-dimethyl-1-(2,5,8,11-tetraoxatridecan-13-yl)indolin-2-ylidene)ethenyl)cyclohex-1-en-1-yl)ethenyl)-3,3-dimethyl-3H-indol-1-ium Chloride] yielded an IC50 in data set [1] of 1660 nM. Besides, the IC50 at 3 days in data set [2] is over 10000 nM. Besides, in data set [3], the Absorption peak is listed as 796.5 nm and the “Absorbance × 10^4” value was determined as 2.15. The molecule also came in with a kinetic solubility at 2 h in data set [4] of over 250 µg/mL. Also, the Tumor/background ratio in data set [5] is on record as 2.7.
With `CN(C)C1CC(/C=C/C2=[N+](C)c3ccccc3C2(C)C)=C(Cl)C(=C/C=C2/N(CCCCCC(=O)O)c3ccccc3C2(C)C)/C1` (stereo not drawn) [Example 87], the IC50 in data set [1] is 1420 nM. In data set [2], the IC50 at 3 days is over 10000 nM. In addition, in data set [3], the Absorption peak is given as 785 nm and the “Absorbance × 10^4” value worked out at 1.91. This molecule had a kinetic solubility at 2 h in data set [4] of 38 µg/mL. Further, the Tumor/background ratio in data set [5] is 3.3.
Turning to `C[N+]1=C(/C=C/C2=C(Cl)C(=C/C=C3/N(CCOCCC(=O)Oc4ccccc4)c4ccccc4C3(C)C)/CCC2)C(C)(C)c2ccccc21.[Cl-]` [Example 95], the IC50 in data set [1] amounted to 980 nM. Also, the IC50 at 3 days in data set [2] is over 10000 nM. In data set [3], the Absorption peak is reported as 793.5 nm and the “Absorbance × 10^4” value is reported as 2.41. This molecule gave a solubility (kinetic) at 2 h in data set [4] of 99 µg/mL. Further, the Tumor/background ratio in data set [5] is 2.8.
